Test system: transient focal cerebral ischaemia (occlusion of the middle cerebral artery)
Test: Transient focal cerebral ischaemia (microcoil occlusion of the right MCA, 90 min, then reperfusion mimicking mechanical thrombectomy) with MRI and behavioural follow-up
Format: in vivo, rhesus macaques
Description: The primates used in the study are rhesus macaques, in which it has been possible to obtain a stable and reproducible model of reversible ischaemia mimicking an ischaemic stroke and its reperfusion by mechanical thrombectomy, as explained below. After approval of the project by the ethics committee for animal experimentation, 6 rhesus macaques were randomized in 2 groups of 3 animals per group, namely: • a group treated with argon or “argon group” inhaling, for 90 min in total, a binary gas mixture formed of 60% argon and 40% oxygen (vol. %), the inhalation of the gas beginning 30 min after the start of the ischaemia and extending during and after the thrombectomy procedure (with or without thrombolysis); • a “control group” inhaling a gas mixture formed of 60% nitrogen and 40% oxygen (vol. %). These groups are subjected to a model of transient focal cerebral ischaemia without craniectomy consisting of an occlusion under anaesthesia of the middle cerebral artery (MCA) by deploying a rigid microspring, called a “microcoil”, until the arterial blood flow stops, in the M2 segment of the right MCA. After 90 min of ischaemia, which is the usual average time between the first signs of an ischaemic stroke and the cerebral reperfusion, the “microcoil” was removed and the revascularization confirmed by arteriography. This procedure mimics a blood clot and its removal by mechanical thrombectomy. All the animals are monitored by high-resolution MRI (Prisma 3 Tesla, Siemens) several days before and directly after the ischaemia (3[…], TOF) in order to quantify the cerebral volume made ischaemic (i.e. restriction of the apparent diffusion coefficient) and the cerebral oedema ([…]). Moreover, the functional recovery was monitored in the acute phase in 1 control animal and over the long-term in two animals of the argon group, that is to say over the course of 3 months post-ischaemia. The evaluations were carried out in terms of the clinical and functional neurological recovery with behavioural tests evaluating their fine sensory-motor performances.

[Ar] [argon]
lesion volume (argon group (60% argon/40% oxygen, 90 min), control group about 5 ml): about 1 ml | performances in the behavioural tests (fine sensory-motor) post-ischaemia compared with baseline (argon group animals monitored 3 months post-ischaemia): not significantly impaired | blood-brain barrier state on MRI images (argon group, rupture observed in the control group): preserved | decrease in the volume of cerebral oedema compared to the control group (inhaled 60% argon/40% oxygen for 90 min, begun 30 min after start of ischaemia, MRI T2-FLAIR, P<0.05 vs control): 85 % reduction | decrease in the cerebral volume infarcted compared to the control group (inhaled 60% argon/40% oxygen for 90 min, begun 30 min after start of ischaemia, MRI, P<0.05 vs 60% nitrogen/40% oxygen control): 83 % reduction | clinical and functional neurological recovery (two animals of the argon group monitored 3 months post-ischaemia, deficit = left leg paresis): rapid recovery with only a minor and transient neurological deficit

— patent US11717635B2, “Argon combined with thrombectomy in the event of ischaemic stroke” (L'Air Liquide, Société Anonyme pour l'Etude et …, priority 2019, dated 2023)
